# In publication PMC4588877, “Guanine nucleotide exchange factor 2 for Rab5 proteins coordinated with GLUP6/GEF regulates the intracellular transport of the proglutelin from the Golgi apparatus to the protein storage vacuole in rice endosperm” (Journal of Experimental Botany, 2015):
# How the values were obtained:
# GLUP4/Rab5a (rice) = GLUP4/Rab5a (rice) (UniProt Q0ILQ6); assay: SPR; BIACORE J; GLUP4/Rab5a immobilised on Sensor Chip CM5; Rab5-GEF2 or GLUP6/GEF (1.5, 3.5, 5, 6.5, 10.5 μM) applied for 120 s at 30 μl/min in 10 mM HEPES-NaOH pH 7.4, 0.15 M NaCl, 0.5 mM MgCl2, 10 mM GDP, 0.1% Triton X-100; apparent KD from association and dissociation curves
# Rab5b = target: T1, Rab5b (Oryza sativa, UniProt Q10RN9); assay: GDP/GMP-PNP exchange, Trp intrinsic fluorescence (ex […] nm, em […] nm); format: binding; settings: 1 µM GST-Rab preloaded with GDP; 0.1 mM GMP-PNP; GST-GLUP6/GEF or GST-Rab5-GEF2 0-1 µM as exchange factor; 20 mM Tris-HCl pH 8.0, 150 mM NaCl, 0.5 mM MgCl2
# T1 construct: gene Os03g0151900; GST fusion (pGEX 4T-1), E. coli BL21 (DE3); tag kept
# T1 sequence (Q10RN9 1-199): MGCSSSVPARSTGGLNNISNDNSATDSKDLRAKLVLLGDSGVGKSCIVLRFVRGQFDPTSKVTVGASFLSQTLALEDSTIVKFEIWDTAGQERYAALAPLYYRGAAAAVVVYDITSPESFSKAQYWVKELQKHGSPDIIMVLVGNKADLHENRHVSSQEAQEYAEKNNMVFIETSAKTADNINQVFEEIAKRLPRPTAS
# Rab5c = target: T2, Rab5c (Oryza sativa, UniProt Q75HA2); assay: as above; format: binding; settings: 1 µM GST-Rab preloaded with GDP; 0.1 mM GMP-PNP; GST-GLUP6/GEF or GST-Rab5-GEF2 0-1 µM as exchange factor; 20 mM Tris-HCl pH 8.0, 150 mM NaCl, 0.5 mM MgCl2
# T2 construct: gene Os03g0666500; GST fusion (pGEX 4T-1), E. coli BL21 (DE3); tag kept
# T2 sequence (Q75HA2 1-203): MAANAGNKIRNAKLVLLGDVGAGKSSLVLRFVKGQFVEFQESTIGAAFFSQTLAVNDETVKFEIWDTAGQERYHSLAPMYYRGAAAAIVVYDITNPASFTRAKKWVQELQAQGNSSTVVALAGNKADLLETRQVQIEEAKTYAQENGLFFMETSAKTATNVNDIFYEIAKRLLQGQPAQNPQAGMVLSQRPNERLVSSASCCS
# GLUP4/Rab5a = target: T3, GLUP4/Rab5a (Oryza sativa, UniProt Q0ILQ6); assay: as above; format: binding; settings: 1 µM GST-Rab preloaded with GDP; 0.1 mM GMP-PNP; GST-Rab5-GEF2 0-1 µM as exchange factor; 20 mM Tris-HCl pH 8.0, 150 mM NaCl, 0.5 mM MgCl2
# T3 construct: GST fusion (pGEX 4T-1), E. coli BL21 (DE3); tag kept
# T3 sequence (Q0ILQ6 1-203): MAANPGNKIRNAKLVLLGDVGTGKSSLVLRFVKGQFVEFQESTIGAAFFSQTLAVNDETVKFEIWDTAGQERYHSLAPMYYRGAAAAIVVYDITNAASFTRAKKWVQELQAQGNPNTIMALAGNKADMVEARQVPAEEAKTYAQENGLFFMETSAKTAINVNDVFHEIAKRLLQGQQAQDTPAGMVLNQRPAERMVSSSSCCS
Molecule,Kd (GLUP4/Rab5a (rice)),"GDP/GMP-PNP exchange, Trp intrinsic fluorescence (ex 298 nm, em 340 nm) (Rab5b)","GDP/GMP-PNP exchange, Trp intrinsic fluorescence (ex 298 nm, em 340 nm) (Rab5c)","GDP/GMP-PNP exchange, Trp intrinsic fluorescence (ex 298 nm, em 340 nm) (GLUP4/Rab5a)"
Rab5-GEF2 (natural protein),1.7 µM,–,–,–
Nc1nc2c(ncn2[C@@H]2O[C@H](COP(=O)(O)OP(=O)(O)NP(=O)(O)O)[C@@H](O)[C@H]2O)c(=O)[nH]1 [GMP-PNP],–,Rab5b and Rab5c were activated by GLUP6/GEF in a dose-dependent manner,Rab5b and Rab5c were activated by GLUP6/GEF in a dose-dependent manner,"Rab5-GEF2 activated GLUP4/Rab5a, the plant-specific Rab5b, and Rab5c in a dose-dependent manner"
GLUP6/GEF (natural protein),2.1 µM,–,–,–
